Results: ChEMBL document CHEMBL5715954, “Silencing c-Myc translation as a therapeutic strategy through targeting PI3Kδ and CK1ε in hematological malignancies” (Blood, 2017)

Tests used:
Design in all cases: scale not given: the % may be the effect or the level left
[1] = target: Non-receptor tyrosine-protein kinase TYK2 (Homo sapiens) (UniProt P29597); assay: Inhibition of human TYK2 assessed as enzyme activity at 1 uM using KKSRGDYMTMQIG as substrate preincubated for 20 mins followed by [gamma-33P]-ATP addition and measured after 120 mins by radiometric Hot-SpotSM Kinase assay relative to control
Sequence of Non-receptor tyrosine-protein kinase TYK2 (Homo sapiens) (P29597 whole entry): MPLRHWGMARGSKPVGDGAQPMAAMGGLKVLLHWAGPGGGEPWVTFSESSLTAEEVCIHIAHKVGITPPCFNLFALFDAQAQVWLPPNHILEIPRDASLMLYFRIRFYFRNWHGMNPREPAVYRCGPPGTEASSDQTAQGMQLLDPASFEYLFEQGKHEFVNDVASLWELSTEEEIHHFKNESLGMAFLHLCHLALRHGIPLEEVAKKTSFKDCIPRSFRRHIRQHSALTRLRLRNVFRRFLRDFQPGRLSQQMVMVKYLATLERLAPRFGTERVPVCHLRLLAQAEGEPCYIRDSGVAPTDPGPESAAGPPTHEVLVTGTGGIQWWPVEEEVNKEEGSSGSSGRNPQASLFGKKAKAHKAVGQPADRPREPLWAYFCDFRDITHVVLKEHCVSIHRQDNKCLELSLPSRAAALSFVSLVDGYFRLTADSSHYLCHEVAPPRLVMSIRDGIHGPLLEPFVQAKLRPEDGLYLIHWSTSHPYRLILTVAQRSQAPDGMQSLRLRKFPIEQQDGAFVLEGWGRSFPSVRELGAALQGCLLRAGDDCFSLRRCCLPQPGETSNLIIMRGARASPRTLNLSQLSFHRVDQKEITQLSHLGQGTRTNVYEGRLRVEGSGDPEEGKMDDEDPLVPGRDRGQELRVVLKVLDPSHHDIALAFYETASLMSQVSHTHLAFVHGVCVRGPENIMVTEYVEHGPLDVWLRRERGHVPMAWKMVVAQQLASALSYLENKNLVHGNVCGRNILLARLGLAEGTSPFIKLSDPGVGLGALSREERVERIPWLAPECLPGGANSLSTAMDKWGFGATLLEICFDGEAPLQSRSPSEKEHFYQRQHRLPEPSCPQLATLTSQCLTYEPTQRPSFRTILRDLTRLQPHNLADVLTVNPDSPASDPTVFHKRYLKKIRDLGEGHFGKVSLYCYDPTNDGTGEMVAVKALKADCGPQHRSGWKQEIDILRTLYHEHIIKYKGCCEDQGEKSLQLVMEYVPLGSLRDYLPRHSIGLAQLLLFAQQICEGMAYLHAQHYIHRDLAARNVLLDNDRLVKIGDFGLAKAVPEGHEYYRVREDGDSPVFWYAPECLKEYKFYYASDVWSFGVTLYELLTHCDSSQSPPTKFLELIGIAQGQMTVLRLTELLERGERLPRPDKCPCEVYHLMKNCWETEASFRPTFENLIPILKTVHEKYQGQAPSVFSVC

[2] = target: T1, Serine/threonine-protein kinase TBK1 (Homo sapiens) (UniProt Q9UHD2); assay: Inhibition of human TBK1 assessed as enzyme activity at 1 uM using myelin basic protein as substrate preincubated for 20 mins followed by [gamma-33P]-ATP addition and measured after 120 mins by radiometric Hot-SpotSM Kinase assay relative to control
T1 sequence (whole entry): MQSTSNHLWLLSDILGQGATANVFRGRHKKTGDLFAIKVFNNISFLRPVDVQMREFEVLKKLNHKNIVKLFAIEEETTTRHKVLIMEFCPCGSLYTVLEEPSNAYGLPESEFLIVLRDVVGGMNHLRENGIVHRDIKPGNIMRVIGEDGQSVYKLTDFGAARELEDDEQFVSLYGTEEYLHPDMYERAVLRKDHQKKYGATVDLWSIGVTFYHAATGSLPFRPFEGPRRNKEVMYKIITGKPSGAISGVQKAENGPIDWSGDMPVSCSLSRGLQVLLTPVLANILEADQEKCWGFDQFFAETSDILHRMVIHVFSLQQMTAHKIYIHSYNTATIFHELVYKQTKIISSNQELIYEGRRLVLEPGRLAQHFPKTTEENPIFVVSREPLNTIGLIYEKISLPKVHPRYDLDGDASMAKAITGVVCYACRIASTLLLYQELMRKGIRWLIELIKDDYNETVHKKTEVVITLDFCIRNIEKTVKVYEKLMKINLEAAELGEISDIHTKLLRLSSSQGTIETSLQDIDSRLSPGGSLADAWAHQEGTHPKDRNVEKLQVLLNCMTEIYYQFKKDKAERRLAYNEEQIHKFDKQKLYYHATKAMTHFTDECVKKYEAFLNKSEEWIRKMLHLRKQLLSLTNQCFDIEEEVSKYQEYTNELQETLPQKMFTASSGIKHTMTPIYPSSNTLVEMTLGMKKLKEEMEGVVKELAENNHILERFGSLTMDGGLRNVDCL

[3] = target: Tyrosine-protein kinase HCK (Homo sapiens) (UniProt P08631); assay: Inhibition of human HCK assessed as enzyme activity at 1 uM using KVEKIGEGTYGVVYK as substrate preincubated for 20 mins followed by [gamma-33P]-ATP addition and measured after 120 mins by radiometric Hot-SpotSM Kinase assay relative to control
Sequence of Tyrosine-protein kinase HCK (Homo sapiens) (P08631 2-526 limits assumed): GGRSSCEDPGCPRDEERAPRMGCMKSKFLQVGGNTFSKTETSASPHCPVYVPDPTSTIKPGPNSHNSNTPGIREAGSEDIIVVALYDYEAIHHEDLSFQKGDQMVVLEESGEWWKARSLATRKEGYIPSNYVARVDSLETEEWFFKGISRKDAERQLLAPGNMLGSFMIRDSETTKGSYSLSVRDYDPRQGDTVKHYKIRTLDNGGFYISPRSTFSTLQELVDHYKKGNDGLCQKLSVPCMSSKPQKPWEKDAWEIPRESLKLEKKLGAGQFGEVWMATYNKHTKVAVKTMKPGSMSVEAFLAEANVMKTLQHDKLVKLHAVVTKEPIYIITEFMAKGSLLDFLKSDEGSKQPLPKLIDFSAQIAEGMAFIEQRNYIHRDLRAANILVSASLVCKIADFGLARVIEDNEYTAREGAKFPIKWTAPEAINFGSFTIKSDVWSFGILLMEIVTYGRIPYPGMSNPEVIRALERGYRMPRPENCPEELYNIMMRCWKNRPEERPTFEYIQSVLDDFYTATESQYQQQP

[4] = target: T2, Testis-specific serine/threonine-protein kinase 3 (Homo sapiens) (UniProt Q96PN8); assay: Inhibition of human TSSK3 assessed as enzyme activity at 1 uM using KKKVSRSGLYRSPSMPENLNRPR as substrate preincubated for 20 mins followed by [gamma-33P]-ATP addition and measured after 120 mins by radiometric Hot-SpotSM Kinase assay relative to control
T2 sequence (whole entry): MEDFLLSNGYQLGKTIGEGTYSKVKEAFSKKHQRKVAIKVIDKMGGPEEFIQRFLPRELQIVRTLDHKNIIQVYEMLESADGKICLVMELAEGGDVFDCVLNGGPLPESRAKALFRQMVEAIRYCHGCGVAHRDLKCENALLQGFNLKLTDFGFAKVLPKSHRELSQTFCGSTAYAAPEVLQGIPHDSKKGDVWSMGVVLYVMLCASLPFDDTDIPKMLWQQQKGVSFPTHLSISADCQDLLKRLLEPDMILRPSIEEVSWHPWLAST

[5] = target: T3, Serine/threonine-protein kinase STK11 (Homo sapiens) (UniProt Q15831); assay: Inhibition of human LKB1 assessed as enzyme activity at 1 uM using LSNLYHQGKFLQTFCGSPLYRRR as substrate preincubated for 20 mins followed by [gamma-33P]-ATP addition and measured after 120 mins by radiometric Hot-SpotSM Kinase assay relative to control
T3 sequence (whole entry): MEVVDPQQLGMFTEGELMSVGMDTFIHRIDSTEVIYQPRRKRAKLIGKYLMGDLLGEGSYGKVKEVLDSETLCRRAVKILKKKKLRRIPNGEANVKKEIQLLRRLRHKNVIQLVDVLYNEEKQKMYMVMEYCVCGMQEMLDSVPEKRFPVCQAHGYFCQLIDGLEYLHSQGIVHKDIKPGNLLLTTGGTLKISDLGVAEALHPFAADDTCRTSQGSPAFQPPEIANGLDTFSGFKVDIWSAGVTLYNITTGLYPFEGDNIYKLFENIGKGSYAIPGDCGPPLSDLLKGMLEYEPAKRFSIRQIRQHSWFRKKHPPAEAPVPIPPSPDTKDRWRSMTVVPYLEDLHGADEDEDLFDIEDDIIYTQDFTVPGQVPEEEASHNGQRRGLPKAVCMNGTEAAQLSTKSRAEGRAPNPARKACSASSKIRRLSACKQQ

[6] = target: T4, Protein kinase C epsilon type (Homo sapiens) (UniProt Q02156); assay: Inhibition of human PKCepsilon assessed as enzyme activity at 1 uM using ERMRPRKRQGSVRRRV as substrate preincubated for 20 mins followed by [gamma-33P]-ATP addition and measured after 120 mins by radiometric Hot-SpotSM Kinase assay relative to control
T4 sequence (whole entry): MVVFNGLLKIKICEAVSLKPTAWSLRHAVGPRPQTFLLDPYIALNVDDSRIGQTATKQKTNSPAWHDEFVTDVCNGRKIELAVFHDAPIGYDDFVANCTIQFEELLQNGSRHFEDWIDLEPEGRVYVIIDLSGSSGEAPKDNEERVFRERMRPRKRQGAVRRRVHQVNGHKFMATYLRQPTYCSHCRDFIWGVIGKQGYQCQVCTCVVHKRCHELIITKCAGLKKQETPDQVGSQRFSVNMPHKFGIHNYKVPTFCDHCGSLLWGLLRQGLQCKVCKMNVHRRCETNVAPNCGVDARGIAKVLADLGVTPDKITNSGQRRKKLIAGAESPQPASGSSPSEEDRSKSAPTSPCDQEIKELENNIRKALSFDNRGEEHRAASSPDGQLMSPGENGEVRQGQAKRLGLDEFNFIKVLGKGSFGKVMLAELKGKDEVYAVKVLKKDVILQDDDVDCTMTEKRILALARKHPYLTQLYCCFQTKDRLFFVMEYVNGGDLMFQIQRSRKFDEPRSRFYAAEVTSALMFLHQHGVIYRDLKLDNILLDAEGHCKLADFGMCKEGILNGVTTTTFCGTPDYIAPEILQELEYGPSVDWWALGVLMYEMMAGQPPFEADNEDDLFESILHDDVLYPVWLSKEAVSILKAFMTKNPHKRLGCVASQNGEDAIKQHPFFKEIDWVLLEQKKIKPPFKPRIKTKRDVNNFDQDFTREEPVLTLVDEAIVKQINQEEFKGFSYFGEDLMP

[7] = target: Serine/threonine-protein kinase tousled-like 2 (Homo sapiens) (UniProt Q86UE8); assay: Inhibition of human TLK2 assessed as enzyme activity at 1 uM using casein as substrate preincubated for 20 mins followed by [gamma-33P]-ATP addition and measured after 120 mins by radiometric Hot-SpotSM Kinase assay relative to control
Sequence of Serine/threonine-protein kinase tousled-like 2 (Homo sapiens) (Q86UE8 whole entry, looked up): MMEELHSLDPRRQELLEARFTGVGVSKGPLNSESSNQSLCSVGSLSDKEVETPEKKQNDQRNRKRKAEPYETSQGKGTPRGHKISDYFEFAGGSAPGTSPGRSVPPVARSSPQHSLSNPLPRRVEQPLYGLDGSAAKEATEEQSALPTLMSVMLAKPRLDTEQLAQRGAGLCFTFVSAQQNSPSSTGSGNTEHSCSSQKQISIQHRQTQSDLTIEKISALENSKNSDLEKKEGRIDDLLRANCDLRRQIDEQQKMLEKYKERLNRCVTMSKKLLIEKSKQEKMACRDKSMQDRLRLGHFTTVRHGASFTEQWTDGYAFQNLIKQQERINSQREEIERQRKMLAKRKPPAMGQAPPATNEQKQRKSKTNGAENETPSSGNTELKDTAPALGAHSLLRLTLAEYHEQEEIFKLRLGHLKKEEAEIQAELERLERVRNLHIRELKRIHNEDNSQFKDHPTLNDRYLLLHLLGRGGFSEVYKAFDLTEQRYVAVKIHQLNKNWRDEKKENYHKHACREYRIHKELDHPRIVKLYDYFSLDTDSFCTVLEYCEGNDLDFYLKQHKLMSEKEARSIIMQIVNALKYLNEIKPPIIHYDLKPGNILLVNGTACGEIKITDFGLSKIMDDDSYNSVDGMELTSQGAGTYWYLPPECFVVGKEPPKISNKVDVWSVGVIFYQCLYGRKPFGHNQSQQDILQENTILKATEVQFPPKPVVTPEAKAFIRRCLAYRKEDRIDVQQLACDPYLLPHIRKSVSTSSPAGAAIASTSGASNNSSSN

SMILES	Activity [1]	Activity [2]	Activity [3]	Activity [4]	Activity [5]	Activity [6]	Activity [7]
CC[C@H](Nc1ncnc2[nH]cnc12)c1nc2cccc(F)c2c(=O)n1-c1ccccc1	96.6%	89.6%	93.9%	102%	104%	108%	94%
CC(C)Oc1ccc(-c2nn([C@@H](C)c3oc4ccc(F)cc4c(=O)c3-c3cccc(F)c3)c3ncnc(N)c23)cc1F [UMBRALISIB]	102%	93.9%	91%	107%	100%	109%	96.3%
C[C@H](Nc1ncnc2nc[nH]c12)c1cc2cccc(Cl)c2c(=O)n1-c1ccccc1	96.3%	94.4%	98.7%	109%	93%	107%	97.3%
